Assay results as given in publication PMC13395416 (PLOS Pathogens, 2026).
Ends that are not written are not given here. * marks the point of attachment. Biotin = O=C1N[C@H]2[C@H](CS[C@H]2CCCCC(=O)*)N1

B1: N-terminally biotinylated FMNL1 peptide (K190-K213) (peptide, UniProt O95466 190-213, looked up)
peptide: Biotin-KGPPSSVPKSRHLTIKLTPAHSRK

Columns and labels:
SteC1-457 = target: T1, SteC1-457 (Salmonella enterica, UniProt D0ZIB5); settings: 5 μM MYL12A, 100 μM ATP with 20 kBq [γ-32P]ATP, 100 nM kinase, 10 mM MgCl2, pH 7.5, 30 °C
T1 construct: gene steC

[1] = target: SteC_(210-429) WT, minimal active kinase domain (Salmonella Typhimurium strain 14028s, UniProt D0ZIB5 210-429); test: BLI; settings: both partners purified
SteC_(210-429) WT, minimal active kinase domain, sequence (D0ZIB5 210-429): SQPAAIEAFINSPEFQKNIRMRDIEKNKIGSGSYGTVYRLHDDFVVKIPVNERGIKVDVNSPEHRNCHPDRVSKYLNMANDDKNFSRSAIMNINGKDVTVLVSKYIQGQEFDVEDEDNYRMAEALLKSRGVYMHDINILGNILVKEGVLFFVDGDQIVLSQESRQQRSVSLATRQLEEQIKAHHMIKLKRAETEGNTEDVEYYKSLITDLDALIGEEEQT

T1 sequence (D0ZIB5 whole entry): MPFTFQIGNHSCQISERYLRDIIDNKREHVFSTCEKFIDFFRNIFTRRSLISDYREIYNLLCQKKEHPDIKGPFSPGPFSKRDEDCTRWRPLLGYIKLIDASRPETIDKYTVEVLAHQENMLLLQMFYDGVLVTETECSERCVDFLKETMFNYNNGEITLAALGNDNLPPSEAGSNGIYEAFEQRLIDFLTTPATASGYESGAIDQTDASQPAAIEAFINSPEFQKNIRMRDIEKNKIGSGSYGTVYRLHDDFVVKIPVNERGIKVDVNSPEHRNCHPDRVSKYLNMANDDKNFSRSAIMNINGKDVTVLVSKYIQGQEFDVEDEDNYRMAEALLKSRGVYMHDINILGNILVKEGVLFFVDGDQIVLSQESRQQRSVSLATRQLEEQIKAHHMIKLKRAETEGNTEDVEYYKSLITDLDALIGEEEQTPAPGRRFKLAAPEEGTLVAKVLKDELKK

| Molecule | radioactive kinase assay, SDS-PAGE autoradiography (SteC1-457) | Kd [1] [µM] |
| --- | --- | --- |
| Nc1ncnc2c1ncn2[C@@H]1O[C@H](COP(=O)(O)OP(=O)(O)OP(=O)(O)O)[C@@H](O)[C@H]1O [ATP] | SteC1-457 mediated phosphorylation of MYL12A | – |
| B1 | – | 7.9 |
